# Experimental data taken from patent US8784373B2, “Drug delivery by carbon nanotube arrays” (California Institute of Technology, priority 2010, dated 2014).
# Entries after “also recorded” stand apart in the source; their conditions may differ.
# Columns and labels:
# [1] = Rubbing experiment (mechanical drug removal) with glass slide; assay type: physicochemical; settings: for flutax-1 removed (washed-out) by rubbing: approx. 125 μg deposited, 1 μL DI water, 500 g weight, 60 seconds
# Protocol: Another experiment was performed that targeted possible drug removal from CNT-fitted drug delivery platform by mechanical (e.g., rubbing) actions during its cardiovascular travel. Two types of specimens were used, a bare sheet of latex and a sheet of latex with CNTs anchored on one side. On each specimen, approximately 125 μg of flutax-1 was deposited by successively dropping small volumes of its ethanol solution and allowed to dry. Next, 1 μL of DI water followed by a microscopic 3×1×5/128-inch glass slide was put on each specimen. Finally, with a 500 g weight on top of it, the microscopic slide was moved back and forth a few millimeters at about 1 cm/sec for 60 seconds (FIG. 8). […] After the test, each of the two specimens was dropped in 2 mL of pure ethanol to see if they still had flutax-1 left on them.
# [2] = Diffusion of flutax-1 from anchored CNT array; assay type: physicochemical
# [3] = paclitaxel-eluting composite fibers, most of it over 30 days; cited from earlier work
Structure (SMILES),"flutax-1 remaining after rubbing, recovered in 2 mL pure ethanol ([1]; CNT-fitted latex sheet)",flutax-1 removed (washed-out) by rubbing ([1]; CNT-fitted latex sheet),"flutax-1 remaining after rubbing, recovered in 2 mL pure ethanol ([1]; bare latex sheet)",flutax-1 removed (washed-out) by rubbing ([1]; bare latex sheet),movement (diffusion) of flutax-1 molecules ([2]; in DI water),"movement (diffusion) of flutax-1 molecules, time scale ([2]; in agar)",drug delivered from stent [3]
CC(=O)O[C@H]1C(=O)[C@@]2(C)C([C@H](OC(=O)c3ccccc3)[C@]3(O)C[C@H](OC(=O)[C@H](O)[C@@H](NC(=O)c4ccccc4)c4ccccc4)C(C)=C1C3(C)C)[C@]1(OC(C)=O)CO[C@@H]1C[C@@H]2OC(=O)[C@H](C)NC(=O)c1ccc(-c2c3ccc(=O)cc-3oc3cc(O)ccc23)c(C(=O)O)c1 (stereo partly shown) [flutax-1],much flutax-1 still remains; also recorded: considerably more flutax-1 released,almost no,no more flutax-1 remains,significant amount; also recorded: considerably higher flutax-1 removal,did not move appreciably,in a matter of minutes,–
CC(=O)O[C@H]1C(=O)[C@@]2(C)[C@H]([C@H](OC(=O)c3ccccc3)[C@]3(O)C[C@H](OC(=O)[C@H](O)[C@@H](NC(=O)c4ccccc4)c4ccccc4)C(C)=C1C3(C)C)[C@]1(OC(C)=O)CO[C@@H]1C[C@@H]2O [paclitaxel],–,–,–,–,–,–,about 40%
